pIC50: −log10 of the molar value.
What was measured:
[1] = molecular target: PDE1B (Homo sapiens, UniProt Q01064); assay: In vitro PDE selectivity assay, PDE1B; assay type: biochemical; conditions: Table 4a in vitro selectivity; read-out: IC50 PDE type 1B
Protocol: (§1) Rat recombinant PDE10A (rPDE10A2) was expressed in Sf9 cells using a recombinant rPDE10A baculovirus construct. Cells were harvested after 48 h of infection and the rPDE10A protein was purified by metal chelate chromatography on Ni-sepharose 6FF. […] The reaction was incubated for 60 min. at RT. […] After sedimentation of the beads during 30 min. the radioactivity was measured in a Perkin Elmer Topcount scintillation counter and results were expressed as cpm. For blank values the enzyme was omitted from the reaction and replaced by incubation buffer. […] The same assay principle is applied for the measurement of the affinity of the compound for other members of the PDE family with appropriate modifications in incubation buffer, substrate concentration, incubation time and stop solution.

[2] = molecular target: PDE3A (Homo sapiens, UniProt Q14432); assay: In vitro PDE selectivity assay, PDE3A; assay type: biochemical; conditions: Table 4a in vitro selectivity; read-out: IC50 PDE type 3A
Protocol: as §1

[3] = molecular target: PDE4D (Homo sapiens, UniProt Q08499); assay: In vitro PDE selectivity assay, PDE4D; assay type: biochemical; conditions: Table 4a in vitro selectivity; read-out: IC50 PDE type 4D
Sequence of PDE4D (Q08499 whole entry, species assumed): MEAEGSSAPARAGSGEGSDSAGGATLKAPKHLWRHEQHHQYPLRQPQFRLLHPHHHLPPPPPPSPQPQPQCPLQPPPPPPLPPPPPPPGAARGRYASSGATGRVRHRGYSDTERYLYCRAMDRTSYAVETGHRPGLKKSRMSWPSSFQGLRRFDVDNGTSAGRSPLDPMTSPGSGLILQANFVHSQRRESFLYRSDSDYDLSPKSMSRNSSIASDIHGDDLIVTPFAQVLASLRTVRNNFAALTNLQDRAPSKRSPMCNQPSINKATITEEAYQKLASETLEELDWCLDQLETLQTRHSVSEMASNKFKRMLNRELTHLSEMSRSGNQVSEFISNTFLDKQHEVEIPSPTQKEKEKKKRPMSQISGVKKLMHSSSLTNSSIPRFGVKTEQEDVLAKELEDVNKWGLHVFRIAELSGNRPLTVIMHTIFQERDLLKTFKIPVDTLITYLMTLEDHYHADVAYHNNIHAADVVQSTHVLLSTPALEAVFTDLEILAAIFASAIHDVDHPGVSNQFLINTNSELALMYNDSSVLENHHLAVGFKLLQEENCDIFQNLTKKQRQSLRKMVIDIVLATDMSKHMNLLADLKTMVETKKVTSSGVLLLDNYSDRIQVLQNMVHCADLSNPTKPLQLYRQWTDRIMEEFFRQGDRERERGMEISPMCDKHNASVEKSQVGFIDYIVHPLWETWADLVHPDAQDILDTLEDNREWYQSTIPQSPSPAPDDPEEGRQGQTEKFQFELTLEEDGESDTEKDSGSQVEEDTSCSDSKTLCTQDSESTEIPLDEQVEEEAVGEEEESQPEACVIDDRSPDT
Protocol: as §1

[4] = molecular target: PDE5A (Homo sapiens, UniProt O76074); assay: In vitro PDE selectivity assay, PDE5A; assay type: biochemical; conditions: Table 4a in vitro selectivity; read-out: IC50 PDE type 5A
Protocol: as §1

[5] = molecular target: PDE6AB (Homo sapiens, UniProt P16499+P35913); assay: In vitro PDE selectivity assay, PDE6AB; assay type: biochemical; conditions: Table 4a in vitro selectivity; read-out: IC50 PDE type 6AB
Sequence of PDE6AB (P16499 whole entry): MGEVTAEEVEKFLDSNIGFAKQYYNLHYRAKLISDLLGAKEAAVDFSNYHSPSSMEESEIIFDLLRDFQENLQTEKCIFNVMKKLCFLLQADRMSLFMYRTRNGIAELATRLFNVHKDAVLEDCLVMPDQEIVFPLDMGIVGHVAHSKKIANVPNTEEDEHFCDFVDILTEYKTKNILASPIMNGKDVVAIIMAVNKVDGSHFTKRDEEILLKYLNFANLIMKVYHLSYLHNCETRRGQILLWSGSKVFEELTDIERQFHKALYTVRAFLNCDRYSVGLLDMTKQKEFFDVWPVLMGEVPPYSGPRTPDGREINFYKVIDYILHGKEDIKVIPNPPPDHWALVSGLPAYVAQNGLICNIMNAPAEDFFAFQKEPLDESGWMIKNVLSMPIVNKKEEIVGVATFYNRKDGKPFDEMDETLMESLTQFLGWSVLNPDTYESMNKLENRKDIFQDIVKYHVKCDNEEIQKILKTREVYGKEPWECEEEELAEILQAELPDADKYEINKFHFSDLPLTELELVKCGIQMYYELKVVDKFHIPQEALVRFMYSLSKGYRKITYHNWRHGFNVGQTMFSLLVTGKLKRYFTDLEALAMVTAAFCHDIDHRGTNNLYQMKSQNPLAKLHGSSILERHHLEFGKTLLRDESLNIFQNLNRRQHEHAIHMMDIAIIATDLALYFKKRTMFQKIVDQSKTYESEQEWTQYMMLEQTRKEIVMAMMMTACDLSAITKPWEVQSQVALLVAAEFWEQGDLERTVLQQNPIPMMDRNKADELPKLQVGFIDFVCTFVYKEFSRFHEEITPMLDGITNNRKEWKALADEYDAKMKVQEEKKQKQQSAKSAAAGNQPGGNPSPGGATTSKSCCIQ
Sequence of PDE6AB (P35913 whole entry): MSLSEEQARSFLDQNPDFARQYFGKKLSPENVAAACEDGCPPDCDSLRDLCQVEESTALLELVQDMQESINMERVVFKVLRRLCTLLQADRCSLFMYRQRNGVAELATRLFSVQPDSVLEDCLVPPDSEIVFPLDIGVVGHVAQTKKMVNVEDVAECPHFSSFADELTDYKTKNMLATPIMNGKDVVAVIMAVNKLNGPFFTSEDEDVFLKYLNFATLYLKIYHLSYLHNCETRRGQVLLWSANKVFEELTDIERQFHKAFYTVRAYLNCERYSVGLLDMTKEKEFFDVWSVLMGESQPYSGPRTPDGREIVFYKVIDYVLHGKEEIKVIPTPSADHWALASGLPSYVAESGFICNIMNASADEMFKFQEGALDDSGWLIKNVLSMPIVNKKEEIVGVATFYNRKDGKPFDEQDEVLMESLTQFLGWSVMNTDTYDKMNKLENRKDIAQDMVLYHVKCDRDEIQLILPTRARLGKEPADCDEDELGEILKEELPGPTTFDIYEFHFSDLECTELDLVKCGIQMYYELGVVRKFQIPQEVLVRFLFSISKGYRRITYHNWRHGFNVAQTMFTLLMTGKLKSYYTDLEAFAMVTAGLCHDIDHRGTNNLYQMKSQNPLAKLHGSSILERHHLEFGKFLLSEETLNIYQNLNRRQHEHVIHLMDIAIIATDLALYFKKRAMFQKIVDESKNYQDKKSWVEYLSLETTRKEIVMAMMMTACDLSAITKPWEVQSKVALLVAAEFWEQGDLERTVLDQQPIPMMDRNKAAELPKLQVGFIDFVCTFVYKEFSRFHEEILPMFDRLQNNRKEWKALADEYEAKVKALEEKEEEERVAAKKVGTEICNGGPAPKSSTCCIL
Protocol: as §1

[6] = molecular target: PDE7A (Homo sapiens, UniProt Q13946); assay: In vitro PDE selectivity assay, PDE7A; assay type: biochemical; conditions: Table 4a in vitro selectivity; read-out: IC50 PDE type 7A
Sequence of PDE7A (Q13946 whole entry, species assumed): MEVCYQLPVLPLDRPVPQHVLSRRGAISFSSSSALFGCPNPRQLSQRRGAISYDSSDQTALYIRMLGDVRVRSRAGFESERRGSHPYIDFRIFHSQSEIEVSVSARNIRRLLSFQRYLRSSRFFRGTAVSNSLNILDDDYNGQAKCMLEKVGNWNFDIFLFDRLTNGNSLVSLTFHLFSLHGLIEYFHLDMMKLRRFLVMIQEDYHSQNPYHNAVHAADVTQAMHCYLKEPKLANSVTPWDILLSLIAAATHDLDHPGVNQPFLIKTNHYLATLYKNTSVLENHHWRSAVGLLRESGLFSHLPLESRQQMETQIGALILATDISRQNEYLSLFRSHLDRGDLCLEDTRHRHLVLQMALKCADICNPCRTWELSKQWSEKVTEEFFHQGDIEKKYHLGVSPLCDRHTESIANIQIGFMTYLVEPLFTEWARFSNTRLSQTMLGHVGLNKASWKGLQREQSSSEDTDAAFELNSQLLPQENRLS
Protocol: as §1

[7] = molecular target: PDE8A1 (Homo sapiens, UniProt O60658); assay: In vitro PDE selectivity assay, PDE8A; assay type: biochemical; conditions: Table 4a in vitro selectivity; read-out: IC50 PDE type 8A
Sequence of PDE8A1 (O60658 whole entry, species assumed): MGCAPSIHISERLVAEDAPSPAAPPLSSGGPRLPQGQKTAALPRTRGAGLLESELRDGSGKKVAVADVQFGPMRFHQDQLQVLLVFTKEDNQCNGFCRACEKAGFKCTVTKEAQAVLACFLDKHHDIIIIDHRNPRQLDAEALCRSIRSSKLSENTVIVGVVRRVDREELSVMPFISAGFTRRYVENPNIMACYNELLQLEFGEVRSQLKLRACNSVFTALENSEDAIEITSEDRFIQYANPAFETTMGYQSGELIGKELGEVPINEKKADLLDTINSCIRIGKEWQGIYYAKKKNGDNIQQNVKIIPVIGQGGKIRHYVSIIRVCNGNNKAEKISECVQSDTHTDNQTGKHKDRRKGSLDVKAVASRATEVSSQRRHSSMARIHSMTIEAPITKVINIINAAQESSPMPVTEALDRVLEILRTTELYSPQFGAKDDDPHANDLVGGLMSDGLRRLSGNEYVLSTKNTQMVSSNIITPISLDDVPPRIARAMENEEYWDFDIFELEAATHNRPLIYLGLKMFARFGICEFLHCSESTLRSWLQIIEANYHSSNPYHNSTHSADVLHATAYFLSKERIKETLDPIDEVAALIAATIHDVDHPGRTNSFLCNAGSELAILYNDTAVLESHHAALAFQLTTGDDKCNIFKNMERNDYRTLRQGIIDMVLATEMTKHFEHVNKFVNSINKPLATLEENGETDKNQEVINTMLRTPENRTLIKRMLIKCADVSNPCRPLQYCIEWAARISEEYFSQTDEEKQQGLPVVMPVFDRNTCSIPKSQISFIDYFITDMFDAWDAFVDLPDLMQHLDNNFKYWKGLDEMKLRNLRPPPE
Protocol: as §1

[8] = molecular target: T1, PDE10 (Rattus norvegicus, UniProt Q9QYJ6); assay: PDE10 occupancy ([3H]-MP-10, striatum); assay type: in vivo; conditions: rat, sc; occupancy, administered s.c.; read-out: Occ. ED50
T1 construct: from tissue; host or cells: rat brain sections, striatum (ex vivo autoradiography after in vivo dosing)
T1 sequence (Q9QYJ6 1-794): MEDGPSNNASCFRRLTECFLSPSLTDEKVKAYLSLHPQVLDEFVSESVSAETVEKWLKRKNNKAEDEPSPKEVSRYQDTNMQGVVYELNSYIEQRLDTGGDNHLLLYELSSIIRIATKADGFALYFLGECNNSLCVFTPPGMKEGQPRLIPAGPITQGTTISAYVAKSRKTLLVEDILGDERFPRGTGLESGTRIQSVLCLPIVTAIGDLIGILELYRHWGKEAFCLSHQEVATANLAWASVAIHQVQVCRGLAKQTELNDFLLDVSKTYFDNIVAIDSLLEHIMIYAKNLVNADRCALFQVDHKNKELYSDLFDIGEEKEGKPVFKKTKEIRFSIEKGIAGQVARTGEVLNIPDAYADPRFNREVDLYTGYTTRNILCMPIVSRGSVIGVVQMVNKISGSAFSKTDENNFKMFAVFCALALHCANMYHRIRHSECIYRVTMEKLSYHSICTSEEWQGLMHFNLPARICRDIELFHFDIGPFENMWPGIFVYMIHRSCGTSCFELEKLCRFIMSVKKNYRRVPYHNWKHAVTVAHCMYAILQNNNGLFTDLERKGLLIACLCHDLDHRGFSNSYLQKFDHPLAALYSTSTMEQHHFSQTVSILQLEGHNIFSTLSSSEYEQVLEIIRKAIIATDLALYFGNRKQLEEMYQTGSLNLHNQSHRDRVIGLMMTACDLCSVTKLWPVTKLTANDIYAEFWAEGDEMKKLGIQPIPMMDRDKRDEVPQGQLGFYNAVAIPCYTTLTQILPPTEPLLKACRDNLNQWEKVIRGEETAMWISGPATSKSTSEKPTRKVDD
Protocol: Dose-response or single dose experiments were performed to measure PDE10 occupancy 1 hour after subcutaneous (s.c.) or oral (p.o.) administration. Male Wistar rats (200 g) were treated by s.c. or p.o. administration of various PDE10 inhibitors. The PDE10 radioligand [^3H]-MP-10 (10 μCi/animal) was injected intravenously (i.v.) 30 minutes before sacrifice. Brains were immediately removed from the skull and rapidly frozen. Twenty μm-thick brain sections were cut using a cryostat-microtome, thaw-mounted on microscope slides and loaded in a β-imager to quantify PDE10 occupancy in the striatum.

[9] = test system: conditioned avoidance response; assay: Conditioned avoidance response (CAR) test; assay type: in vivo; conditions: Rattus norvegicus
Description: Conditioned Avoidance Response (CAR) Test
The apparatus consisted of an inner box surrounded by an outer box. The inner box was composed of four walls of transparent, synthetic material (length×width×height: 30×30×30 cm), an open top, and a grid floor made of 15 pairs of iron bars (2 mm diameter; 6 mm inter-bar distance). Odd and even bars were connected with a source of alternative current (1.0 mA; Coulbourn Instruments Solid State Shocker/Distributor), which could be interrupted by a switch. The outer box was composed of the same material (length×width×height: 40×40×36 cm), also with an open top, with a distance of 5 cm between the inner and outer box on all sides. To decrease the amount of environmental stimuli, three walls of the outer box were made non-transparent. The front wall was left transparent to allow the necessary inspection of the animal during the test. The upper edge of the outer and inner box served as a target for the rats on which to jump with fore- and hind-paws, respectively.
From their arrival in the laboratory on the experimental day, male Wiga Wistar rats (230±30 g) were housed in individual cages provided with bedding material.
The rats were tested 3 times, i.e. at 60, 90 and 120 min after the injection of test compound or solvent. Latency to avoidance was recorded. The median avoidance response obtained over the three experimental sessions for each rat were used for further calculations.

[10] = test system: SCH-23390-induced hypolocomotion; assay: SCH-23390-induced hypolocomotion in mice; assay type: in vivo; conditions: Mus musculus; male NMRI mice, pretreated 0.5 h earlier; criterion total distance >2500 counts; read-out: ED50 reversal of SCH-23390-induced hypolocomotion
Protocol: SCH-23390-Induced Hypolocomotion in Mice
SCM-23390 (0.08 mg/kg, i.v.)-induced hypolocomotion was evaluated over a 30-min period starting immediately after the SCH-23390 challenge in male NMRI mice pretreated 0.5 h earlier with test compound or solvent. Averaged activity in solvent-treated control mice was 1540±559 counts (mean±SD; n=103). Criterion for drug-induced reversal of the SCH-23390-induced hypolocomotion: total distance: >2500 counts (2.9% false positives in controls).

Sequence of PDE1B (Q01064 whole entry): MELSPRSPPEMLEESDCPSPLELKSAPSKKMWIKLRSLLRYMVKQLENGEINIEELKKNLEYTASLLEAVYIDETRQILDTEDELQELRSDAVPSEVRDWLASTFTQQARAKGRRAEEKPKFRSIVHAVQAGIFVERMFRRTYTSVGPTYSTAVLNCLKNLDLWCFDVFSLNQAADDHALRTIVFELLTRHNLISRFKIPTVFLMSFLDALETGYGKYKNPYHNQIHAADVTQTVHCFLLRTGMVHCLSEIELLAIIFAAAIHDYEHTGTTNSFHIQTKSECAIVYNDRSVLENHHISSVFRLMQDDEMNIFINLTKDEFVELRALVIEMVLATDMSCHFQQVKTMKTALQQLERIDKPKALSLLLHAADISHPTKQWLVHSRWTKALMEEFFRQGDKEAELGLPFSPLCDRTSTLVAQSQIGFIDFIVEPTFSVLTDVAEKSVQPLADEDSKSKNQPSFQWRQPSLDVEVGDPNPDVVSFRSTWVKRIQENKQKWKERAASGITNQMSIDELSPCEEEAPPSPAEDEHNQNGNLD

Cc1nc2c(N3CCOCC3)nccn2c1-c1ccc(C2CCOCC2)nc1 [compound 25, 2-Methyl-8-morpholin-4-yl-3-[6-(tetrahydro-pyran-4-yl)-pyridin-3-yl]-imidazo[1,2-a]pyrazine]
pIC50 [1]: < 4.00 | pIC50 [2]: 3.95 | pIC50 [3]: 4.23 | pIC50 [4]: 4.47 | pIC50 [5]: 4.02 | pIC50 [6]: < 4.00 | pIC50 [7]: < 4.00 | ED50 [8]: 4.6 mg/kg | ED50 [9]: 4.1 mg/kg | ED50 [10]: 7.1 mg/kg
